In ChEMBL document CHEMBL3352229, “20(S)-Ginsenoside Rh2 as aldose reductase inhibitor from Panax ginseng” (Bioorg Med Chem Lett, 2014):

What follows are compounds tested against Aldo-keto reductase family 1 member B1 (Homo sapiens, UniProt P15121) (assay: Inhibition of human recombinant aldose reductase using DL-glyceraldehyde, HRAR and beta-NADPH incubated for 10 mins by spectrophotometry).
With `CC(C)=CCC[C@](C)(O)[C@H]1CC[C@]2(C)[C@@H]1[C@H](O)C[C@@H]1[C@@]3(C)CC[C@H](O[C@@H]4O[C@H](CO)[C@@H](O)[C@H](O)[C@H]4O)C(C)(C)[C@@H]3CC[C@]12C` [GINSENOSIDE RH2] the IC50 was 147 µM. With `CC(C)=CCC[C@](C)(O)[C@H]1CC[C@]2(C)[C@@H]1[C@H](O)C[C@@H]1[C@@]3(C)CC[C@H](O)C(C)(C)[C@@H]3[C@@H](O[C@@H]3O[C@H](CO)[C@@H](O)[C@H](O)[C@H]3O)C[C@]12C` [GINSENOSIDE RH1] the IC50 was over 200 µM. In the case of `CC(C)=CCCC(C)(O)[C@H]1CC[C@]2(C)[C@@H]1[C@H](O)C[C@@H]1[C@@]3(C)CC[C@H](O[C@@H]4O[C@H](CO)[C@@H](O)[C@H](O)[C@H]4O)C(C)(C)[C@@H]3CC[C@]12C` (mixture of isomers), the IC50 is reported as over 200 µM. Work on `CC(C)=CCC[C@@](C)(O)[C@H]1CC[C@]2(C)[C@@H]1[C@H](O)C[C@@H]1[C@@]3(C)CC[C@H](O[C@@H]4O[C@H](CO)[C@@H](O)[C@H](O)[C@H]4O)C(C)(C)[C@@H]3CC[C@]12C` yielded an IC50 of over 200 µM. With `CC(C)=CCC[C@](C)(O)[C@H]1CC[C@]2(C)[C@@H]1[C@H](O)C[C@@H]1[C@@]3(C)CC[C@H](O[C@@H]4O[C@H](CO)[C@@H](O)[C@H](O)[C@H]4O[C@@H]4O[C@H](CO)[C@@H](O)[C@H](O)[C@H]4O)C(C)(C)[C@@H]3CC[C@]12C` the IC50 was over 200 µM. In the case of `CC(C)=CCC[C@](C)(O)[C@H]1CC[C@@]2(C)[C@@H]1[C@@H](O)C[C@@H]1[C@@]3(C)CC[C@H](O)C(C)(C)[C@@H]3[C@@H](O[C@@H]3O[C@H](CO)[C@@H](O)[C@H](O)[C@H]3O[C@@H]3O[C@H](CO)[C@@H](O)[C@H](O)[C@H]3O)C[C@]12C`, the IC50 is reported as over 200 µM. `CC(C)=CCC[C@@](C)(O)[C@H]1CC[C@]2(C)[C@@H]1[C@H](O)C[C@@H]1[C@@]3(C)CC[C@H](O[C@@H]4O[C@H](CO)[C@@H](O)[C@H](O)[C@H]4O[C@@H]4O[C@H](CO)[C@@H](O)[C@H](O)[C@H]4O)C(C)(C)[C@@H]3CC[C@]12C` gave an IC50 of over 200 µM. `CC(C)=CCC[C@](C)(O[C@@H]1O[C@H](CO)[C@@H](O)[C@H](O)[C@H]1O)[C@H]1CC[C@]2(C)[C@@H]1[C@H](O)C[C@@H]1[C@@]3(C)CC[C@H](O)C(C)(C)[C@@H]3CC[C@]12C` showed an IC50 of over 200 µM.
